Tests used:
[1] = system: immune cell clusters (CD45+ cells); test: CyTOF mass cytometry of blood and spleen with Citrus analysis; format: in vivo, mice; details: 6-OHDA 150 mg/kg twice IP (SNS ablated); splenocytes 24 h after VTA activation
Procedure: Two weeks after completion of the behavioral testing, mice were injected intraperitoneally with CNO and anesthetized 24 hours thereafter. Spleens and blood samples were collected. Spleens were dissociated into single-cell suspensions in 2% fetal bovine serum (Biological Industries, IL) and mesh filtered to remove clumps and debris. Blood samples were collected into heparin-coated sterile test tubes. Both the blood and the spleen cell suspensions were lysed with red blood cell lysis buffer (BD Biosciences, NJ, US). Cells ([…]) from each tissue were stained, for 1 hour at room temperature, with a mixture of metal tagged antibodies recognizing CD45, CCR3, CD80, GR1, CD86, CD19, CD4, CD45R, CD152, CD138, CD8, NK1.1, CD27, CD206, CD25, CD14, CD11c, CD49b, CD34, CD69, CD123, TCRβ, CCR7, CD28, CD115, CD133, TLR4, CD117, CD79b, CD62L, CD44, CD45RA, CD1d, IAIE, CD5, and CD11b. All antibodies were conjugated using the MAXPAR reagent (Fluidigm Inc.), with Rhodium and Iridium intercalators used to identify live/dead cells. Cells were washed twice with PBS, fixed in 1.6% formaldehyde (Sigma-Aldrich, St. Louis, MO) for 1 hour, washed again in ultrapure H2O and subjected to CyTOF mass cytometry analysis on a CyTOF I machine, with cell events acquired at approximately 500 events per second. In addition, each sample was spiked with internal metal isotope bead standards, which then was used for sample normalization by CyTOF software (Fluidigm). Acquired data was then uploaded to a Cytobank web server (Cytobank Inc.) for data processing and gating out of dead cells and normalization beads. Data was transformed using an arc sin h (X/5) transformation.
Differences in cell subset abundance and functional marker expression between VTA activated and control mice, were identified using the Citrus algorithm, a clustering and differential detection algorithm especially suited for high dimensional cytometry data (2). Twenty FCS files of normalized, live cell/no beads samples (Five VTA activated mice spleens, five VTA activated mice blood samples, 5 control mice spleen and five control mice blood) were each randomly sampled for 40,000 single cell events each. Briefly, Citrus performs three steps to identify cell subsets and differences between groups: First, collected single cell events are pooled together and iteratively hierarchically clustered using a subset of the measured channels for clustering (See Table 1 for a list of 23 clustering markers), yielding overlapping clusters with the ultimate cluster being one encompassing all sampled events. Second, the pooled dataset is split back into its constituting samples and the relative abundance of cells in each cluster is computed, as well as the median values of each functional marker (see Table 1 for a list of functional markers). Only cell clusters whose total abundance in one or more of the measured samples was greater than 1% of the total measured sample was retained for downstream analysis, yielding a total of 151 clusters. Third, the Citrus implementation of the SAM algorithm was applied, to identify, separately, differences in cell subset abundances and medians between VTA activated and control mouse samples at a predetermined FDR of 5%. Beyond this, an additional criteria for calling differences was employed, by performing a Mann-Whitney non-parametric test of significance on each cluster found to be different between VTA activated and control and requiring that it meet a p-value <0.05 criteria. Manual inspection of Citrus output was used to identify the closest known gross-cell type, matching the 23 combination clustering marker panel. A similar procedure analysis procedure was performed for 6-OHDA samples versus control. […]

[2] = IP injected; cited from earlier work

Question: With NCCc1cc(O)c(O)cc1O [6 OHDA, 6-hydroxydopamine] as the compound, how does the “differences in immune system (CD45+ cells) between VTA-activated and control mice” value [1] read?
Answer: The value was “no significant differences were detected”.

Question: And the “crossing of the blood brain barrier” value [2]?
Answer: Its value is “does not cross the blood brain barrier”.
